Among the data in US10758534B2 (Vertex Pharmaceuticals Incorporated, priority 2014, dated 2020) are EC30 values, retold here.

T1 sequence (P13569 with tags, fused parts or gaps DEL508-508): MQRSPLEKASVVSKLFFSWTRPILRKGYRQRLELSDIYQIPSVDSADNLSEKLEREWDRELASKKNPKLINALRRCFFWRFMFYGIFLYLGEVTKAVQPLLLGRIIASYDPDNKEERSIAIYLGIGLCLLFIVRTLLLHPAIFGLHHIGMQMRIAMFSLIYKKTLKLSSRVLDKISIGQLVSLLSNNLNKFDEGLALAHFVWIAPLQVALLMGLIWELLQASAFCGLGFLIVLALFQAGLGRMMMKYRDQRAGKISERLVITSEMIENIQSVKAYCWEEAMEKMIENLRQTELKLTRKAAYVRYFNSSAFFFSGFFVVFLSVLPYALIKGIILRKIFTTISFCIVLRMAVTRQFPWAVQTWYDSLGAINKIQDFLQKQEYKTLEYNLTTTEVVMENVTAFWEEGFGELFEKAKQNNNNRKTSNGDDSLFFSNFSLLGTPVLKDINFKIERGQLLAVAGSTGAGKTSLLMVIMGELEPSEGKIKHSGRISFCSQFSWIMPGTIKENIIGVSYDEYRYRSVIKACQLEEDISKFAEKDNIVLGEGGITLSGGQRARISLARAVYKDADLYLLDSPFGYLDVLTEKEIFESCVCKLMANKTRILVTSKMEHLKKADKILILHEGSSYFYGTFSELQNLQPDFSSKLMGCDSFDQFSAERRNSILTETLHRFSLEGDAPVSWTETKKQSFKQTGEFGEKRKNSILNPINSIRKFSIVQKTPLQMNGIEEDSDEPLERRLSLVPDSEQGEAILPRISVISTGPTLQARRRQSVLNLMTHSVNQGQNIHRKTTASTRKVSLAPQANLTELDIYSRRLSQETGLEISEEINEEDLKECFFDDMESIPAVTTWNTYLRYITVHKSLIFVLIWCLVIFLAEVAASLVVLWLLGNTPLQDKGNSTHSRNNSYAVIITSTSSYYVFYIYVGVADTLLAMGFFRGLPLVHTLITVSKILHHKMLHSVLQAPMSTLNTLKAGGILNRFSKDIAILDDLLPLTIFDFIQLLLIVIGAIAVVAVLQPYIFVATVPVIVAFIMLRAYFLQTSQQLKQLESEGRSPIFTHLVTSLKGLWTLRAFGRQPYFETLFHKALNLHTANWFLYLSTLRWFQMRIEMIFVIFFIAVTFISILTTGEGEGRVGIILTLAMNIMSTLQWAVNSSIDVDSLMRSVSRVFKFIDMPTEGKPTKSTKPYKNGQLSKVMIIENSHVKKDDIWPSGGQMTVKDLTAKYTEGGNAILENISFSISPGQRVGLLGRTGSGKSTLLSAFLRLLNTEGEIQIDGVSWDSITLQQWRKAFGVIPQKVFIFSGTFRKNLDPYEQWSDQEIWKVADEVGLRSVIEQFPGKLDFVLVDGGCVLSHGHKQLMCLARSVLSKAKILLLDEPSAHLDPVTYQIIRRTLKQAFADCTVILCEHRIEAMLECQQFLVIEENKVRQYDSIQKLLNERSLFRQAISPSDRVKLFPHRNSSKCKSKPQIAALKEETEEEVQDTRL

This experiment has as its target T1, F508del (Homo sapiens, UniProt P13569, DEL508-508).
T1 construct: expressed in transfected cells
Description: Protocol 1: membrane potential optical assay (FLIPR III, voltage sensing dye), identification of potentiator compounds. It counts as cell-based. The settings on record: Table 3, compounds of Table 1. The procedure, abridged:
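Read-out: change in voltage-sensing dye fluorescence (FLIPR III) as a measure of F508del conductance. Temperature-corrected (27° C, 24 hrs) NIH 3T3 cells expressing F508del are pretreated with potentiators, dye-loaded, then stimulated with forskolin under a chloride ion gradient using chloride-free gluconate bath.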
For `Cc1ccccc1C1CCCCCN1c1ncccc1C(=O)NS(=O)(=O)c1cccc(N)n1` (stereo not drawn) [Compound 1772, N-[(6-amino-2-pyridyl)sulfonyl]-2-[2-(o-tolyl)azepan-1-yl]pyridine-3-carboxamide], the EC30 result is “++ (“++” means between 3 uM and 10 uM)”. For `CCC1(C)CCCN(c2nc(-c3ccc(OC(C)C)nc3)ccc2C(=O)NS(=O)(=O)c2cccc(N)n2)C1` (stereo not drawn) [Compound 1341, N-[(6-amino-2-pyridyl)sulfonyl]-2-(3-ethyl-3-methyl-1-piperidyl)-6-(6-isopropoxy-3-pyridyl)pyridine-3-carboxamide], the EC30 result is “+++ (“+++” means <3 uM)”. Turning to `CC(C)COc1cc(F)cc(-c2ccc(C(=O)NS(=O)(=O)c3cccc(N)n3)c(N3CCC4(CC4)C3)n2)c1` [Compound 1061, N-[(6-amino-2-pyridyl)sulfonyl]-2-(6-azaspiro[2.4]heptan-6-yl)-6-(3-fluoro-5-isobutoxy-phenyl)pyridine-3-carboxamide], the EC30 result is reported as “+++ (“+++” means <3 uM)”. Next, `CCOc1ccc(-c2ccc(C(=O)NS(=O)(=O)c3cc[nH]n3)c(Oc3ccc(C)cc3C)n2)cc1` [Compound 813, 2-(2,4-dimethylphenoxy)-6-(4-ethoxyphenyl)-N-(1H-pyrazol-3-ylsulfonyl)pyridine-3-carboxamide]: “+++ (“+++” means <3 uM)”; `Cc1cc(C)c(Oc2nc(C3(C)CC3)ccc2C(=O)NS(=O)(=O)c2cccc(N)n2)c(C)c1` [Compound 1310, N-[(6-amino-2-pyridyl)sulfonyl]-6-(1-methylcyclopropyl)-2-(2,4,6-trimethylphenoxy)pyridine-3-carboxamide]: “+++ (“+++” means <3 uM)”. Turning to `Cc1ccccc1Oc1nc(C(C)(C)C)ccc1C(=O)NS(=O)(=O)c1cccc(N)n1` [Compound 1318, N-[(6-amino-2-pyridyl)sulfonyl]-6-tert-butyl-2-(2-methylphenoxy)pyridine-3-carboxamide], the EC30 result is on record as “+++ (“+++” means <3 uM)”. Next, `CC1CN(c2ncccc2C(=O)NS(=O)(=O)c2cccc(N3CCCCCC3)n2)C(C)(C)C1` (stereo not drawn) [Compound 1932, N—[[6-(azepan-1-yl)-2-pyridyl]sulfonyl]-2-(2,2,4-trimethylpyrrolidin-1-yl)pyridine-3-carboxamide]: “+++ (“+++” means <3 uM)”.

With `CCN(CC)c1cccc(-c2ccc(C(=O)NS(=O)(=O)c3cccc(N)n3)c(N3CC(C)CC3(C)C)n2)n1` (stereo not drawn) [Compound 1345, N-[(6-amino-2-pyridyl)sulfonyl]-6-[6-(diethylamino)-2-pyridyl]-2-(2,2,4-trimethylpyrrolidin-1-yl)pyridine-3-carboxamide], the EC30 result is recorded as “+++ (“+++” means <3 uM)”.

On to `CC(C)COc1ccc(-c2ccc(C(=O)NS(=O)(=O)c3ccc[nH]c3=O)c(N3CCC(C)CC3)n2)cc1` [Compound 1017, 6-(4-isobutoxyphenyl)-2-(4-methyl-1-piperidyl)-N-[(2-oxo-1H-pyridin-3-yl)sulfonyl]pyridine-3-carboxamide], for which the EC30 result is “++ (“++” means between 3 uM and 10 uM)”.

For `COc1cc(F)c(-c2ccc(C(=O)NS(=O)(=O)c3ccc[nH]c3=O)c(N3C[C@@H](C)CC3(C)C)n2)cc1F` [Compound 1913, 6-(2,5-difluoro-4-methoxy-phenyl)-N-[(2-oxo-1H-pyridin-3-yl)sulfonyl]-2-[(4S)-2,2,4-trimethylpyrrolidin-1-yl]pyridine-3-carboxamide], the EC30 result is recorded as “+++ (“+++” means <3 uM)”. Next, `Cc1ccc(C(=O)NS(=O)(=O)c2cccc(N)n2)c(N2C[C@@H](C)CC2(C)C)n1` [Compound 1420, N-[(6-amino-2-pyridyl)sulfonyl]-6-methyl-2-[(4S)-2,2,4-trimethylpyrrolidin-1-yl]pyridine-3-carboxamide]: “++ (“++” means between 3 uM and 10 uM)”. As to `Cc1cc(C)c(Oc2nc(-c3ccc(C)cc3F)ccc2C(=O)NS(=O)(=O)c2cccc(N)n2)c(C)c1` [Compound 875, N-[(6-amino-2-pyridyl)sulfonyl]-6-(2-fluoro-4-methyl-phenyl)-2-(2,4,6-trimethylphenoxy)pyridine-3-carboxamide], the EC30 entry is reported as “+++ (“+++” means <3 uM)”. Next, `CC(C)COc1cc(F)cc(-c2ccc(C(=O)NS(=O)(=O)c3cccc(N)n3)c(OCCC3CC3)n2)c1` [Compound 1685, N-[(6-amino-2-pyridyl)sulfonyl]-2-(2-cyclopropylethoxy)-6-(3-fluoro-5-isobutoxy-phenyl)pyridine-3-carboxamide]: “+++ (“+++” means <3 uM)”. Next, `COc1cc(F)cc(-c2ccc(C(=O)NS(=O)(=O)c3cccnc3N)c(N3C[C@@H](C)CC3(C)C)n2)c1` [Compound 1869, N-[(2-amino-3-pyridyl)sulfonyl]-6-(3-fluoro-5-methoxy-phenyl)-2-[(4S)-2,2,4-trimethylpyrrolidin-1-yl]pyridine-3-carboxamide]: “+++ (“+++” means <3 uM)”; `CC(CO)COc1cc(F)cc(-c2ccc(C(=O)NS(=O)(=O)c3cccc(N)n3)c(N3C[C@@H](C)CC3(C)C)n2)c1` (stereo partly drawn) [Compound 1567, N-[(6-amino-2-pyridyl)sulfonyl]-6-[3-fluoro-5-(3-hydroxy-2-methyl-propoxy)phenyl]-2-[(4S)-2,2,4-trimethylpyrrolidin-1-yl]pyridine-3-carboxamide]: “+++ (“+++” means <3 uM)”. Next, `Cc1cc(C)c(Oc2nc(C3=CC(C)(C)CCC3=O)ccc2C(=O)NS(=O)(=O)c2cccc(N)n2)c(C)c1` [Compound 1598, N-[(6-amino-2-pyridyl)sulfonyl]-6-(3,3-dimethyl-6-oxo-cyclohexen-1-yl)-2-(2,4,6-trimethylphenoxy)pyridine-3-carboxamide]: “+++ (“+++” means <3 uM)”; `Cc1cc(C)c(Oc2nc(-c3ccc4c(cnn4C)c3)ccc2C(=O)NS(=O)(=O)c2cccc(N)n2)c(C)c1` [Compound 1276, N-[(6-amino-2-pyridyl)sulfonyl]-6-(1-methylindazol-5-yl)-2-(2,4,6-trimethylphenoxy)pyridine-3-carboxamide]: “++ (“++” means between 3 uM and 10 uM)”. Regarding `CC(C)Oc1ccc(-c2ccc(C(=O)NS(=O)(=O)c3cccc(N)n3)c(N3CCC(C)C(C)C3)n2)cn1` (stereo not drawn) [Compound 979, N-[(6-amino-2-pyridyl)sulfonyl]-2-(3,4-dimethyl-1-piperidyl)-6-(6-isopropoxy-3-pyridyl)pyridine-3-carboxamide], the EC30 result was “+++ (“+++” means <3 uM)”. Next, `CCOc1ccc(-c2ccc(C(=O)NS(=O)(=O)c3cccnc3N)c(N3C[C@@H](C)CC3(C)C)n2)cc1C` [Compound 1860, N-[(2-amino-3-pyridyl)sulfonyl]-6-(4-ethoxy-3-methyl-phenyl)-2-[(4S)-2,2,4-trimethylpyrrolidin-1-yl]pyridine-3-carboxamide]: “+++ (“+++” means <3 uM)”. Next, `CC1CN(c2ncccc2C(=O)NS(=O)(=O)c2cccc(NCc3nccs3)n2)C(C)(C)C1` (stereo not drawn) [Compound 1865, N—[[6-(thiazol-2-ylmethylamino)-2-pyridyl]sulfonyl]-2-(2,2,4-trimethylpyrrolidin-1-yl)pyridine-3-carboxamide]: “++ (“++” means between 3 uM and 10 uM)”; `C[C@@H]1CN(c2nc(-c3cc(O)cc(F)c3)ccc2C(=O)NS(=O)(=O)c2cccc(N)n2)C(C)(C)C1` [Compound 1636, N-[(6-amino-2-pyridyl)sulfonyl]-6-(3-fluoro-5-hydroxy-phenyl)-2-[(4S)-2,2,4-trimethylpyrrolidin-1-yl]pyridine-3-carboxamide]: “++ (“++” means between 3 uM and 10 uM)”; `CC1CN(c2nc(C(C)(C)C)c(C3=CCN(C(=O)OC(C)(C)C)CC3)cc2C(=O)NS(=O)(=O)c2cccc(N)n2)C(C)(C)C1` (stereo not drawn) [Compound 1522, tert-butyl 4-[5-[(6-amino-2-pyridyl)sulfonylcarbamoyl]-2-tert-butyl-6-(2,2,4-trimethylpyrrolidin-1-yl)-3-pyridyl]-3,6-dihydro-2H-pyridine-1-carboxylate]: “+++ (“+++” means <3 uM)”. Next, `CC(C)COc1cc(F)cc(-c2ccc(C(=O)NS(=O)(=O)c3cccc(N)n3)c(C3=CCC(C(F)(F)F)CC3)n2)c1` (stereo not drawn) [Compound 1667, N-[(6-amino-2-pyridyl)sulfonyl]-6-(3-fluoro-5-isobutoxy-phenyl)-2-[4-(trifluoromethyl)cyclohexen-1-yl]pyridine-3-carboxamide]: “++ (“++” means between 3 uM and 10 uM)”; `CC(=O)NC1CCCN(S(=O)(=O)NC(=O)c2ccc(-c3cc(F)cc(OCC(C)C)c3)nc2N2CC(C)CC2(C)C)C1` (stereo not drawn) [Compound 1586, N-[(3-acetamido-1-piperidyl)sulfonyl]-6-(3-fluoro-5-isobutoxy-phenyl)-2-(2,2,4-trimethylpyrrolidin-1-yl)pyridine-3-carboxamide]: “+++ (“+++” means <3 uM)”; `C[C@@H]1CN(c2nc(C(C)(C)C)c(C3=CC4CCC3C4)cc2C(=O)NS(=O)(=O)c2cccc(N)n2)C(C)(C)C1` (stereo partly drawn) [Compound 1577, N-[(6-amino-2-pyridyl)sulfonyl]-5-(3-bicyclo[2.2.1]hept-2-enyl)-6-tert-butyl-2-[(4S)-2,2,4-trimethylpyrrolidin-1-yl]pyridine-3-carboxamide]: “+++ (“+++” means <3 uM)”.

On to `CC1CN(c2ncccc2C(=O)NS(=O)(=O)c2cccc(Nc3ccc4c(c3)CCC4)n2)C(C)(C)C1` (stereo not drawn) [Compound 1909, N—[[6-(indan-5-ylamino)-2-pyridyl]sulfonyl]-2-(2,2,4-trimethylpyrrolidin-1-yl)pyridine-3-carboxamide], for which the EC30 entry is “+++ (“+++” means <3 uM)”. Next, `Cc1cc(C)c(Oc2nc(-c3ccc(OCC(C)C)cc3)ccc2C(=O)NS(=O)(=O)c2ccc[nH]c2=O)c(C)c1` [Compound 1079, 6-(4-isobutoxyphenyl)-N-[(2-oxo-1H-pyridin-3-yl)sulfonyl]-2-(2,4,6-trimethylphenoxy)pyridine-3-carboxamide]: “+++ (“+++” means <3 uM)”.
